{
  "source": "patent US20110150914A1",
  "about": "“COMPOSITIONS AND METHODS FOR DENGUE VIRUS (DV) TREATMENT AND VACCINATION” (priority 2008, published 2011)",
  "key": {"CD8^+ T cells [1]": {"test_system": "CD8^+ T cells", "assay": "Intracellular cytokine staining (IFN-γ), splenocytes of S221-infected wild-type mice", "type": "cell-based, C57BL/6 mice", "procedure": "(§1) All Ab were purchased from eBioscience with the exception of anti-CD8α-PerCP and anti-CD107a-FITC which were obtained from BD Biosciences. RBC in blood were lysed using RBC lysis buffer (eBioscience). For surface staining, splenocytes or blood cells were washed, incubated with supernatant from 2.4G2-producing hybridoma cells to block Fc receptors, and labeled with anti-CD8α-PerCP, anti-CD44-APC, and anti-CD62L-PE. For intracellular cytokine staining, 10^6 splenocytes or 10^5 blood cells were plated in 96-well U-bottom plates and stimulated with individual DENV peptides (0.1 μg/ml) in the presence of brefeldin A (GolgiPlug, BD Biosciences) for 5 h. For CD107a staining, CD107a-FITC (or rat IgG2a-FITC) was added to the wells at the same time as the peptide. Cells were washed, incubated with 2.4G2 supernatant, labeled with anti-CD8α-PerCP, fixed and permeabilized using the BD Cytofix/Cytoperm Kit, and stained with anti-IFN-γ-APC and anti-TNF-α-PE. Samples were read on a FACS Caliber (BD Biosciences) and analyzed using FloJo software (Tree Star, Inc.)\nTo confirm that the IFN-γ response to the MHC class I-binding DENV peptides was mediated by CD8^+ T cells, intracellular cytokine staining (ICS) on CD8^+ T cells isolated from S221-infected wild-type mice was performed. Splenocytes were harvested from C57BL/6 mice 7 days after infection with 10^11 genomic equivlalents (GE) S221 and were re-stimulated in vitro with individual DENV2 peptides or an irrelevant peptide (irr) at 0.1 μg/ml in the presence of brefeldin A for 5 h. Cells were then stained for surface CD8 and intracellular IFN-γ and analyzed by flow cytometry. […] The percent of CD8^+ T cells producing IFN-γ is indicated. Referring to FIG. 2B, the figure is a summary of the DENV2-specific CD8^+ IFN-γ^+ response. The response to the irrelevant control peptide was subtracted from the responses to each DENV2 peptide. Each symbol represents one mouse and the bar represents the geometric mean. The identification of the 12 positive peptides for S221 was confirmed by the intracellular cytokine staining (ICS) (FIG. 2A), and the response to the 8 most dominant peptides was determined (FIG. 2B). The responses ranged from 0.14% recognizing NS2A 36 to 9.8% of CD8^+ T cells recognizing NS4B 99.\nSplenocytes were harvested from naïve C57BL/6 mice or mice 7 days after infection with 10^11 GE of S221. The percent of CD8^+ T cells expressing CD44 and CD62L was determined in four independent studies (FIG. 3A). On day 7 after infection, splenocytes were stimulated with the eight major DENV2 peptides (individually; at 0.1 μg/ml) in the presence of brefeldin A, and stained for surface CD8 and intracellular IFN-γ. The percent of CD8^+ T cells producing IFN-γ in response to the irrelevant control peptide was subtracted from the response to each DENV2 peptide to determine the net response. The net responses to the eight major DENV2 peptides were added to determine the percent of DENV2-specific CD44^hi, CD62^lo, and CD44^hiCD62L^lo CD8^+ T cells (FIG. 3B). The data are expressed as the mean percent±SEM of 11-14 mice tested in at least four independent experiments."}, "CD8^+ T cells [2]": {"test_system": "CD8^+ T cells", "assay": "TNF-α and CD107a staining after peptide re-stimulation", "type": "cell-based, wild-type or IFN-α/βR^−/− mice", "settings": "splenocytes day 7 after S221 infection", "procedure": "as §1\nBecause polyfunctional CD8^+ T cell responses are associated with protection (Harari et al., Immunol Rev 211:236 (2006)), the phenotype of the DENV-specific CD8^+ T cells in wild-type and IFN-α/βR^−/− mice was studied in more detail by measuring CD107a expression (CD107a, or LAMP-1, is expressed on the cell surface upon degranulation) and TNF-α production for two of the DENV-specific CD8^+ T cell populations, as described above. To collect the data, splenocytes harvested from wild-type or IFN-α/βR^−/− mice 7 days after infection with 10^11 or 10^10 GE of S221, respectively, were re-stimulated in vitro with C51-59, NS4B99-107, or an irrelevant peptide. An anti-CD107a Ab was added for the duration of the stimulation. Cells were then stained for surface CD8, intracellular IFN-γ and TNF-α, and analyzed by flow cytometry."}},
  "note": "Ends that are not written are not given here.",
  "data": [
    {"sequence": "YSQVNPITL [NS4B99-107]", "values": [
      {"measurement": "percent of CD8^+ T cells producing IFN-γ / recognizing the peptide", "setting": "CD8^+ T cells [1]; wild-type C57BL/6, day 7 after 10^11 GE S221, peptide 0.1 μg/ml, 5 h", "result": 9.8, "unit": "%"},
      {"measurement": "share of the DENV2-specific response", "setting": "CD8^+ T cells [1]; wild-type C57BL/6 mice", "result": 30, "unit": "%"},
      {"measurement": "% of splenic CD8^+ T cells (corresponding to average number)", "setting": "CD8^+ T cells [1]; wild-type mice, day 7 after 10^11 GE S221", "result": 5.9, "unit": "%"},
      {"measurement": "number of CD8^+ T cells producing IFN-γ (average)", "setting": "CD8^+ T cells [1]; wild-type mice, spleen, day 7 after 10^11 GE S221", "result": "6.3×10^5 CD8^+ T cells"},
      {"measurement": "CD107a surface expression (degranulation)", "setting": "CD8^+ T cells [2]", "result": "expressed CD107a on the surface"},
      {"measurement": "TNF-α production by peptide-specific CD8^+ T cells", "setting": "CD8^+ T cells [2]", "result": "produced TNF-α"}
    ]}
  ]
}
